These antisense oligonucleotides have a phosphorothioate backbone; sugars and methylation of C are not fully specified.
molecular target: PDPK1; conditions: ASO
Further: test concentration or dose not given here.

Q: Which remaining target (mRNA or protein) (fraction of control) does the source give for AAATAAACCCTTCCGCTT here?
A: The remaining target (mRNA or protein) (fraction of control) was 0.74.

Q: With CAGCTTCTCGTCGTCCTG as the sequence, how does the remaining target (mRNA or protein) (fraction of control) read?
A: Its remaining target (mRNA or protein) (fraction of control) is 0.26.

Q: With GTTCAAAGGAGTTCGAGT as the sequence, how does the remaining target (mRNA or protein) (fraction of control) read?
A: Its remaining target (mRNA or protein) (fraction of control) is 0.5.

Q: Which remaining target (mRNA or protein) (fraction of control) does the source give for CTGACAGGGAGTGTGAGG here?
A: Its remaining target (mRNA or protein) (fraction of control) is ≥ 1.

Q: CAGGACAACCGTGGAAAA was tested. Which remaining target (mRNA or protein) (fraction of control) did it give?
A: The remaining target (mRNA or protein) (fraction of control) was ≥ 1.

Q: Which remaining target (mRNA or protein) (fraction of control) does the source give for TATGATATGTCGCTTCTC here?
A: Its remaining target (mRNA or protein) (fraction of control) is 0.42.

Q: Which remaining target (mRNA or protein) (fraction of control) does the source give for GCTGCCTCCAAACCTCCT here?
A: The remaining target (mRNA or protein) (fraction of control) was ≥ 1.

Q: For CTCTAAAGCAGACACAAT, which remaining target (mRNA or protein) (fraction of control) is on record?
A: The remaining target (mRNA or protein) (fraction of control) was 0.71.

Q: For TTGCTGTTCCAAAATCTG, which remaining target (mRNA or protein) (fraction of control) is on record?
A: The remaining target (mRNA or protein) (fraction of control) was ≥ 1.

Q: TGGATGTGCATATCTTCA was tested. Which remaining target (mRNA or protein) (fraction of control) did it give?
A: Its remaining target (mRNA or protein) (fraction of control) is 0.81.

Q: How did the remaining target (mRNA or protein) (fraction of control) turn out when CACTGCACAGCGGCGTCC was run?
A: Its remaining target (mRNA or protein) (fraction of control) is ≥ 1.

Q: For ATGTGGTCCTTCTGTGAG, which remaining target (mRNA or protein) (fraction of control) is on record?
A: The remaining target (mRNA or protein) (fraction of control) was ≥ 1.

Q: How did the remaining target (mRNA or protein) (fraction of control) turn out when GTGAGGAGGAGGACGAAG was run?
A: Its remaining target (mRNA or protein) (fraction of control) is 0.7.

Q: For TGGCTGGCAGGTGGTCTG, which remaining target (mRNA or protein) (fraction of control) is on record?
A: The remaining target (mRNA or protein) (fraction of control) was 0.2.

Q: For GATTTTGCGAATATATTT, which remaining target (mRNA or protein) (fraction of control) is on record?
A: The remaining target (mRNA or protein) (fraction of control) was ≥ 1.

Q: With AAGGTCCCTGTGAATGAT as the sequence, how does the remaining target (mRNA or protein) (fraction of control) read?
A: The remaining target (mRNA or protein) (fraction of control) was 0.39.

Q: CTGCTCTATGTTGCTGCC was tested. Which remaining target (mRNA or protein) (fraction of control) did it give?
A: The remaining target (mRNA or protein) (fraction of control) was 0.55.

Q: Which remaining target (mRNA or protein) (fraction of control) does the source give for GTGCTGGACTCAGTCTGG here?
A: Its remaining target (mRNA or protein) (fraction of control) is 0.51.

Q: How did the remaining target (mRNA or protein) (fraction of control) turn out when AGCGTCCTCCTCCCCGAA was run?
A: Its remaining target (mRNA or protein) (fraction of control) is 0.87.

Q: With TTTATGATATGTCGCTTC as the sequence, how does the remaining target (mRNA or protein) (fraction of control) read?
A: The remaining target (mRNA or protein) (fraction of control) was ≥ 1.

Q: TGGACAAAGAAAGTTTTA was tested. Which remaining target (mRNA or protein) (fraction of control) did it give?
A: The remaining target (mRNA or protein) (fraction of control) was ≥ 1.

Q: GTCCCTGTGAATGATGCC was tested. Which remaining target (mRNA or protein) (fraction of control) did it give?
A: Its remaining target (mRNA or protein) (fraction of control) is 0.24.

Q: How did the remaining target (mRNA or protein) (fraction of control) turn out when GGTGTGCTTTAAGAGGTC was run?
A: Its remaining target (mRNA or protein) (fraction of control) is 0.6.

Q: Which remaining target (mRNA or protein) (fraction of control) does the source give for GGACTTCTCCGTGAGCAG here?
A: Its remaining target (mRNA or protein) (fraction of control) is 0.28.

Q: With ACTGGATGGGCACGGCGT as the sequence, how does the remaining target (mRNA or protein) (fraction of control) read?
A: Its remaining target (mRNA or protein) (fraction of control) is 0.63.

Q: For CAAGTACTCTAAAGCAGA, which remaining target (mRNA or protein) (fraction of control) is on record?
A: The remaining target (mRNA or protein) (fraction of control) was 0.65.

Q: How did the remaining target (mRNA or protein) (fraction of control) turn out when GTTTCCGCCAGCCTGCTT was run?
A: Its remaining target (mRNA or protein) (fraction of control) is ≥ 1.

Q: For TAAAGCTTAACAAAGAAG, which remaining target (mRNA or protein) (fraction of control) is on record?
A: Its remaining target (mRNA or protein) (fraction of control) is ≥ 1.

Q: TGAGCAGCTCTGGAGAAA was tested. Which remaining target (mRNA or protein) (fraction of control) did it give?
A: The remaining target (mRNA or protein) (fraction of control) was 0.85.

Q: Which remaining target (mRNA or protein) (fraction of control) does the source give for AAGGCCGAAATACAGCTT here?
A: Its remaining target (mRNA or protein) (fraction of control) is 0.29.

Q: For GAAGTCCTCAGGCCGCTT, which remaining target (mRNA or protein) (fraction of control) is on record?
A: The remaining target (mRNA or protein) (fraction of control) was 0.28.

Q: Which remaining target (mRNA or protein) (fraction of control) does the source give for CAGTCTGGGTCCTCACCA here?
A: The remaining target (mRNA or protein) (fraction of control) was 0.54.

Q: For TTTAAGTAGTTCTCCATT, which remaining target (mRNA or protein) (fraction of control) is on record?
A: Its remaining target (mRNA or protein) (fraction of control) is 0.39.

Q: With CATCCCGCTCTCTGGTTA as the sequence, how does the remaining target (mRNA or protein) (fraction of control) read?
A: The remaining target (mRNA or protein) (fraction of control) was 0.41.

Q: CCTGAAATGTGAAGTAAA was tested. Which remaining target (mRNA or protein) (fraction of control) did it give?
A: The remaining target (mRNA or protein) (fraction of control) was ≥ 1.

Q: Which remaining target (mRNA or protein) (fraction of control) does the source give for ATTGTCATAATTGCCATA here?
A: Its remaining target (mRNA or protein) (fraction of control) is 0.78.

Q: With GAGTTGGCCCTGGCTTGT as the sequence, how does the remaining target (mRNA or protein) (fraction of control) read?
A: The remaining target (mRNA or protein) (fraction of control) was 0.5.

Q: Which remaining target (mRNA or protein) (fraction of control) does the source give for ATATTCTCTGGAGGTTGC here?
A: The remaining target (mRNA or protein) (fraction of control) was 0.78.

Q: With GCTGCAAGGTTTCCGCCT as the sequence, how does the remaining target (mRNA or protein) (fraction of control) read?
A: The remaining target (mRNA or protein) (fraction of control) was ≥ 1.

Q: GCATGCTGCAGGGAGCCG was tested. Which remaining target (mRNA or protein) (fraction of control) did it give?
A: Its remaining target (mRNA or protein) (fraction of control) is ≥ 1.

Q: Which remaining target (mRNA or protein) (fraction of control) does the source give for AAACTGGCTCAGGAGATT here?
A: The remaining target (mRNA or protein) (fraction of control) was 0.26.

Q: With TCTGGAGAAACGTACTGC as the sequence, how does the remaining target (mRNA or protein) (fraction of control) read?
A: The remaining target (mRNA or protein) (fraction of control) was ≥ 1.

Q: How did the remaining target (mRNA or protein) (fraction of control) turn out when ATCGGGTACAGGTCTCAT was run?
A: The remaining target (mRNA or protein) (fraction of control) was 0.68.

Q: How did the remaining target (mRNA or protein) (fraction of control) turn out when AGACTTTTGCTGTTCCAA was run?
A: Its remaining target (mRNA or protein) (fraction of control) is 0.28.

Q: TGGCATCTAAAACCAAAA was tested. Which remaining target (mRNA or protein) (fraction of control) did it give?
A: The remaining target (mRNA or protein) (fraction of control) was ≥ 1.

Q: How did the remaining target (mRNA or protein) (fraction of control) turn out when GCAGGTGTCCTGGCAGCG was run?
A: The remaining target (mRNA or protein) (fraction of control) was 0.49.

Q: Which remaining target (mRNA or protein) (fraction of control) does the source give for ATGTTTTCCGGTTTAAGG here?
A: Its remaining target (mRNA or protein) (fraction of control) is 0.66.

Q: How did the remaining target (mRNA or protein) (fraction of control) turn out when TAAACCCTTCCGCTTATC was run?
A: The remaining target (mRNA or protein) (fraction of control) was ≥ 1.

Q: With GCAGGAACATAACACCAC as the sequence, how does the remaining target (mRNA or protein) (fraction of control) read?
A: The remaining target (mRNA or protein) (fraction of control) was 0.54.

Q: TAAGTCCAGTTCAAAGGA was tested. Which remaining target (mRNA or protein) (fraction of control) did it give?
A: The remaining target (mRNA or protein) (fraction of control) was 0.75.

Q: How did the remaining target (mRNA or protein) (fraction of control) turn out when TTTGTTGACAGGATCCAC was run?
A: Its remaining target (mRNA or protein) (fraction of control) is 0.72.

Q: Which remaining target (mRNA or protein) (fraction of control) does the source give for AACAACAACCTCTTCTCA here?
A: The remaining target (mRNA or protein) (fraction of control) was 0.7.

Q: With ATTTTCTACAAACTGGTG as the sequence, how does the remaining target (mRNA or protein) (fraction of control) read?
A: The remaining target (mRNA or protein) (fraction of control) was 0.83.

Q: How did the remaining target (mRNA or protein) (fraction of control) turn out when GCGTCCTCCTCCCCGAAG was run?
A: Its remaining target (mRNA or protein) (fraction of control) is ≥ 1.

Q: CTGGTATCGCTGCCTCCA was tested. Which remaining target (mRNA or protein) (fraction of control) did it give?
A: Its remaining target (mRNA or protein) (fraction of control) is 0.22.

Q: How did the remaining target (mRNA or protein) (fraction of control) turn out when CAAGAGCCCAAAGGTCTG was run?
A: The remaining target (mRNA or protein) (fraction of control) was ≥ 1.

Q: How did the remaining target (mRNA or protein) (fraction of control) turn out when CTCAGGCCGCTTCTTCCG was run?
A: Its remaining target (mRNA or protein) (fraction of control) is 0.53.

Q: Which remaining target (mRNA or protein) (fraction of control) does the source give for GCTGTTCCCACGAATGAG here?
A: The remaining target (mRNA or protein) (fraction of control) was 0.39.

Q: With CTGAAATGTGAAGTAAAG as the sequence, how does the remaining target (mRNA or protein) (fraction of control) read?
A: Its remaining target (mRNA or protein) (fraction of control) is 0.45.

Q: ATAGCAGTCCTCGTCGTC was tested. Which remaining target (mRNA or protein) (fraction of control) did it give?
A: The remaining target (mRNA or protein) (fraction of control) was 0.57.

molecular target: VCAM1; conditions: ASO

Q: Which remaining target (mRNA or protein) (fraction of control) does the source give for CCTGAAGCCAGTGAGG here?
A: Its remaining target (mRNA or protein) (fraction of control) is 0.61.

Q: Which remaining target (mRNA or protein) (fraction of control) does the source give for AACCCTTATTTGTGTCCCACC here?
A: The remaining target (mRNA or protein) (fraction of control) was 0.09.

Q: TTTGTGTCCCACCTG was tested. Which remaining target (mRNA or protein) (fraction of control) did it give?
A: Its remaining target (mRNA or protein) (fraction of control) is 0.1.

Q: Which remaining target (mRNA or protein) (fraction of control) does the source give for CACGAGGCCACCACTCATCTC here?
A: The remaining target (mRNA or protein) (fraction of control) was 0.05.

Q: How did the remaining target (mRNA or protein) (fraction of control) turn out when CTGTGTGTCCTGTCTCCGCT was run?
A: Its remaining target (mRNA or protein) (fraction of control) is 0.27.

Q: GCCTGGGAGGGTATTCAGCT was tested. Which remaining target (mRNA or protein) (fraction of control) did it give?
A: Its remaining target (mRNA or protein) (fraction of control) is 0.58.

Q: CATCTCGATTTCTGG was tested. Which remaining target (mRNA or protein) (fraction of control) did it give?
A: Its remaining target (mRNA or protein) (fraction of control) is 0.47.

Q: Which remaining target (mRNA or protein) (fraction of control) does the source give for AACCCAGTGCTCCCTTTGCT here?
A: Its remaining target (mRNA or protein) (fraction of control) is 0.21.

Q: With GGTTCCAAAACCCTT as the sequence, how does the remaining target (mRNA or protein) (fraction of control) read?
A: The remaining target (mRNA or protein) (fraction of control) was 0.42.

Q: TTTAAGCAATCTTGCTATGGC was tested. Which remaining target (mRNA or protein) (fraction of control) did it give?
A: The remaining target (mRNA or protein) (fraction of control) was 0.81.

Q: For GCAATCTTGCTATGGCATAA, which remaining target (mRNA or protein) (fraction of control) is on record?
A: The remaining target (mRNA or protein) (fraction of control) was 0.48.
